Reference: patent US20100256183A1, “FUNGICIDAL 2-ALKYLTHIO-2-QUINOLINYLOXY-ACETAMIDE DERIVATIVES” (priority 2007, published 2010)
Like-named read-outs stand apart in the source and are kept apart here.

Experiments:
Plasmopara viticola = experiment: Leaf disk assay, Plasmopara viticola (downy mildew of grapevine); format: in vivo; settings: foliar, 168 h, read-out: control of fungal infection
Phytophthora infestans = experiment: whole plant or invertebrate; format: in vivo; settings: in Solanum lycopersicum, foliar, 96 h, read-out: control of fungal infection
[1] = tested on: Erysiphe graminis f.sp. tritici; experiment: Leaf disk assay, Erysiphe graminis f.sp. tritici (wheat powdery mildew); format: in vivo; settings: Blumeria graminis, foliar, 96 h, read-out: control of fungal infection
Pyricularia oryzae = experiment: whole plant or invertebrate; format: in vivo; settings: foliar, 96 h, read-out: control of fungal infection
Septoria nodorum = experiment: Leaf disk assay, Septoria nodorum (wheat glume blotch); format: in vivo; settings: for pest or weed control at 200 ppm: Parastagonospora nodorum, foliar, 96 h, read-out: control of fungal infection
Pythium ultimum = Pythium ultimum (damping off) growth inhibition in potato dextrose broth, photometric; format: cell-based; settings: Globisporangium ultimum, read-out: control of fungal infection
[2] = 200 ppm, grapevine leaf disks, preventive, seven days after inoculation
[3] = 200 ppm, wheat leaf segments, preventive, four days after inoculation
[4] = 20 ppm, inhibition of growth after 48 hours at 24° C.
[5] = 20 ppm, preventive, four days after inoculation
[6] = 60 ppm, preventive, four days after inoculation
[7] = 200 ppm, preventive, four days after inoculation

C#CC(C)(C)NC(=O)C(Oc1cc(C)c2ncc(Br)cc2c1)SC (centres unmarked) [2(4), 2-(3-Bromo-8-methyl-quinolin-6-yloxy)-N-(1,1-dimethyl-prop-2-ynyl)-2-methylsulfanyl-acetamide]
pest or weed control at 200 ppm (Plasmopara viticola; [2]): ≥ 60% | pest or weed control at 200 ppm (Phytophthora infestans): ≥ 60% | pest or weed control at 200 ppm [1, 3]: ≥ 60% | pest or weed control at 200 ppm (Pyricularia oryzae): ≥ 60% | pest or weed control at 200 ppm (Septoria nodorum; [3]): ≥ 60% | inhibition of growth at 20 ppm (Pythium ultimum; [4]): ≥ 60%

COCC#CC(C)(C)NC(=O)C(Oc1cc(C)c2ncc(Br)cc2c1)SC (centres unmarked) [3(4), 2-(3-Bromo-8-methyl-quinolin-6-yloxy)-N-(4-methoxy-1,1-dimethyl-but-2-ynyl)-2-methylsulfanyl-acetamide]
pest or weed control at 200 ppm (Plasmopara viticola): ≥ 60% | pest or weed control at 200 ppm (Phytophthora infestans): ≥ 60% | pest or weed control at 200 ppm [1]: ≥ 60% | pest or weed control at 200 ppm (Pyricularia oryzae): ≥ 60% | pest or weed control at 200 ppm (Septoria nodorum): ≥ 60%

CCC#CC(C)(C)NC(=O)C(Oc1cc(C)c2ncc(Br)cc2c1)SC (centres unmarked) [4(4), 2-(3-Bromo-8-methyl-quinolin-6-yloxy)-N-(1,1-dimethyl-pent-2-ynyl)-2-methylsulfanyl-acetamide]
pest or weed control at 200 ppm (Plasmopara viticola): ≥ 60%

COCCC#CC(C)(C)NC(=O)C(Oc1cc(C)c2ncc(Br)cc2c1)SC (centres unmarked) [5(4), 2-(3-Bromo-8-methyl-quinolin-6-yloxy)-N-(5-methoxy-1,1-dimethyl-pent-2-ynyl)-2-methylsulfanyl-acetamide]
pest or weed control at 200 ppm (Plasmopara viticola): ≥ 60% | pest or weed control at 200 ppm (Phytophthora infestans): ≥ 60% | pest or weed control at 200 ppm [1]: ≥ 60% | inhibition of growth at 20 ppm (Pythium ultimum; 48 h): ≥ 60%

C#CC(C)(CC)NC(=O)C(Oc1cc(C)c2ncc(Br)cc2c1)SC (centres unmarked) [7(4), 2-(3-Bromo-8-methyl-quinolin-6-yloxy)-N-(1-ethyl-1-methyl-prop-2-ynyl)-2-methylsulfanyl-acetamide]
pest or weed control at 200 ppm (Plasmopara viticola; [2]): ≥ 60% | pest or weed control at 200 ppm [1, 3]: ≥ 60% | pest or weed control at 200 ppm (Pyricularia oryzae): ≥ 60% | pest or weed control at 200 ppm (Septoria nodorum; [3]): ≥ 60%

CC#CC(C)(CC)NC(=O)C(Oc1cc(C)c2ncc(Br)cc2c1)SC (centres unmarked) [8(4), 2-(3-Bromo-8-methyl-quinolin-6-yloxy)-N-(1-ethyl-1-methyl-but-2-ynyl)-2-methylsulfanyl-acetamide]
pest or weed control at 200 ppm (Plasmopara viticola): ≥ 60% | pest or weed control at 200 ppm (Septoria nodorum): ≥ 60%

C#CC(C)(NC(=O)C(Oc1cc(C)c2ncc(Br)cc2c1)SC)C(C)C (centres unmarked) [12(4), 2-(3-Bromo-8-methyl-quinolin-6-yloxy)-N-(1-isopropyl-1-methyl-prop-2-ynyl)-2-methylsulfanyl-acetamide]
pest or weed control at 200 ppm (Plasmopara viticola; [2]): ≥ 60% | pest or weed control at 200 ppm (Septoria nodorum; [3]): ≥ 60%

CC#CC(C)(C)NC(=O)C(Oc1cc(C)c2ncc(Cl)cc2c1)SC (centres unmarked) [18(4), 2-(3-Chloro-8-methyl-quinolin-6-yloxy)-N-(1,1-dimethyl-but-2-ynyl)-2-methylsulfanyl-acetamide]
pest or weed control at 200 ppm (Plasmopara viticola): ≥ 60% | pest or weed control at 200 ppm (Phytophthora infestans): ≥ 60% | pest or weed control at 200 ppm [1]: ≥ 60% | pest or weed control at 200 ppm (Pyricularia oryzae): ≥ 60% | pest or weed control at 200 ppm (Septoria nodorum): ≥ 60% | inhibition of growth at 20 ppm (Pythium ultimum; 48 h): ≥ 60%

COCC#CC(C)(C)NC(=O)C(Oc1cc(C)c2ncc(Cl)cc2c1)SC (centres unmarked) [19(4), 2-(3-Chloro-8-methyl-quinolin-6-yloxy)-N-(4-methoxy-1,1-dimethyl-but-2-ynyl)-2-methylsulfanyl-acetamide]
pest or weed control at 200 ppm (Plasmopara viticola): ≥ 60% | pest or weed control at 200 ppm (Phytophthora infestans): ≥ 60% | pest or weed control at 200 ppm [1]: ≥ 60% | inhibition of growth at 20 ppm (Pythium ultimum; 48 h): ≥ 60%

CCC#CC(C)(C)NC(=O)C(Oc1cc(C)c2ncc(Cl)cc2c1)SC (centres unmarked) [20(4), 2-(3-Chloro-8-methyl-quinolin-6-yloxy)-N-(1,1-dimethyl-pent-2-ynyl)-2-methylsulfanyl-acetamide]
pest or weed control at 200 ppm (Phytophthora infestans): ≥ 60%

COCCC#CC(C)(C)NC(=O)C(Oc1cc(C)c2ncc(Cl)cc2c1)SC (centres unmarked) [21(4), 2-(3-Chloro-8-methyl-quinolin-6-yloxy)-N-(5-methoxy-1,1-dimethyl-pent-2-ynyl)-2-methylsulfanyl-acetamide]
pest or weed control at 200 ppm (Plasmopara viticola): ≥ 60% | pest or weed control at 200 ppm (Phytophthora infestans): ≥ 60% | pest or weed control at 200 ppm [1]: ≥ 60% | inhibition of growth at 20 ppm (Pythium ultimum; 48 h): ≥ 60%

CCOCC#CC(C)(C)NC(=O)C(Oc1cc(C)c2ncc(Br)cc2c1)SC (centres unmarked) [22(4), 2-(3-Bromo-8-methyl-quinolin-6-yloxy)-N-(4-ethoxy-1,1-dimethyl-but-2-ynyl)-2-methylsulfanyl-acetamide]
pest or weed control at 200 ppm (Plasmopara viticola): ≥ 60%

CSC(Oc1cc(C)c2ncc(Br)cc2c1)C(=O)NC(C)(C)C#C/C=C/CO (centres unmarked) [24(4), 2-(3-Bromo-8-methyl-quinolin-6-yloxy)-N-((E)-6-hydroxy-1,1-dimethyl-hex-4-en-2-ynyl)-2-methylsulfanyl-acetamide]
pest or weed control at 200 ppm (Plasmopara viticola; [2]): ≥ 60% | pest or weed control at 200 ppm (Phytophthora infestans): ≥ 60% | pest or weed control at 200 ppm [1, 3]: ≥ 60% | inhibition of growth at 20 ppm (Pythium ultimum; [4]): ≥ 60%

COCCOCCC#CC(C)(C)NC(=O)C(Oc1cc(C)c2ncc(Br)cc2c1)SC (centres unmarked) [25(4), 2-(3-Bromo-8-methyl-quinolin-6-yloxy)-N-[5-(2-methoxy-ethoxy)-1,1-dimethyl-pent-2-ynyl]-2-methylsulfanyl-acetamide]
pest or weed control at 200 ppm (Plasmopara viticola): ≥ 60% | pest or weed control at 200 ppm (Phytophthora infestans): ≥ 60% | inhibition of growth at 20 ppm (Pythium ultimum; 48 h): ≥ 60%

CSC(Oc1cc(C)c2ncc(Br)cc2c1)C(=O)NC(C)(C)C#CC(C)(O)CCl (centres unmarked) [27(4), 2-(3-Bromo-8-methyl-quinolin-6-yloxy)-N-(5-chloro-4-hydroxy-1,1,4-trimethyl-pent-2-ynyl)-2-methylsulfanyl-acetamide]
pest or weed control at 200 ppm (Plasmopara viticola): ≥ 60% | pest or weed control at 200 ppm [1]: ≥ 60%

C=CCOCC#CC(C)(C)NC(=O)C(Oc1cc(C)c2ncc(Br)cc2c1)SC (centres unmarked) [28(4), N-(4-Allyloxy-1,1-dimethyl-but-2-ynyl)-2-(3-bromo-8-methyl-quinolin-6-yloxy)-2-methylsulfanyl-acetamide]
pest or weed control at 200 ppm (Phytophthora infestans): ≥ 60% | pest or weed control at 200 ppm [1]: ≥ 60% | pest or weed control at 200 ppm (Septoria nodorum): ≥ 60% | inhibition of growth at 20 ppm (Pythium ultimum; 48 h): ≥ 60%

C#CCOCC#CC(C)(C)NC(=O)C(Oc1cc(C)c2ncc(Br)cc2c1)SC (centres unmarked) [29(4), 2-(3-Bromo-8-methyl-quinolin-6-yloxy)-N-(1,1-dimethyl-4-prop-2-ynyloxy-but-2-ynyl)-2-methylsulfanyl-acetamide]
pest or weed control at 200 ppm [1]: ≥ 60% | pest or weed control at 200 ppm (Pyricularia oryzae): ≥ 60%

CSC(Oc1cc(C)c2ncc(Br)cc2c1)C(=O)NC(C)(C)C#CCO (centres unmarked) [30(4), 2-(3-Bromo-8-methyl-quinolin-6-yloxy)-N-(4-hydroxy-1,1-dimethyl-but-2-ynyl)-2-methylsulfanyl-acetamide]
pest or weed control at 200 ppm (Phytophthora infestans): ≥ 60% | pest or weed control at 200 ppm [1]: ≥ 60% | pest or weed control at 200 ppm (Pyricularia oryzae): ≥ 60% | pest or weed control at 200 ppm (Septoria nodorum): ≥ 60% | inhibition of growth at 20 ppm (Pythium ultimum; 48 h): ≥ 60%

COCOCC#CC(C)(C)NC(=O)C(Oc1cc(C)c2ncc(Br)cc2c1)SC (centres unmarked) [31(4), 2-(3-Bromo-8-methyl-quinolin-6-yloxy)-N-(4-methoxymethoxy-1,1-dimethyl-but-2-ynyl)-2-methylsulfanyl-acetamide]
pest or weed control at 200 ppm (Phytophthora infestans): ≥ 60% | pest or weed control at 200 ppm [1]: ≥ 60% | inhibition of growth at 20 ppm (Pythium ultimum; 48 h): ≥ 60%

COCCOCOCC#CC(C)(C)NC(=O)C(Oc1cc(C)c2ncc(Br)cc2c1)SC (centres unmarked) [32(4), 2-(3-Bromo-8-methyl-quinolin-6-yloxy)-N-[4-(2-methoxy-ethoxymethoxy)-1,1-dimethyl-but-2-ynyl]-2-methylsulfanyl-acetamide]
pest or weed control at 200 ppm (Plasmopara viticola): ≥ 60% | pest or weed control at 200 ppm (Phytophthora infestans): ≥ 60% | pest or weed control at 200 ppm [1]: ≥ 60%

C#CC(C)(C)NC(=O)C(Oc1cc(CC)c2ncc(Br)cc2c1)SC (centres unmarked) [33(4), 2-(3-Bromo-8-ethyl-quinolin-6-yloxy)-N-(1,1-dimethyl-prop-2-ynyl)-2-methylsulfanyl-acetamide]
pest or weed control at 200 ppm (Plasmopara viticola; [2]): ≥ 60% | pest or weed control at 200 ppm [1, 3]: ≥ 60% | pest or weed control at 200 ppm (Pyricularia oryzae): ≥ 60% | pest or weed control at 200 ppm (Septoria nodorum; [3]): ≥ 60% | inhibition of growth at 20 ppm (Pythium ultimum; [4]): ≥ 60%

CC#CC(C)(C)NC(=O)C(Oc1cc(CC)c2ncc(Br)cc2c1)SC (centres unmarked) [34(4), 2-(3-Bromo-8-ethyl-quinolin-6-yloxy)-N-(1,1-dimethyl-but-2-ynyl)-2-methylsulfanyl-acetamide]
pest or weed control at 200 ppm (Plasmopara viticola): ≥ 60% | pest or weed control at 200 ppm [1]: ≥ 60% | inhibition of growth at 20 ppm (Pythium ultimum; 48 h): ≥ 60%

CCc1cc(OC(SC)C(=O)NC(C)(C)C#CCOC)cc2cc(Br)cnc12 (centres unmarked) [35(4), 2-(3-Bromo-8-ethyl-quinolin-6-yloxy)-N-(4-methoxy-1,1-dimethyl-but-2-ynyl)-2-methylsulfanyl-acetamide]
pest or weed control at 200 ppm (Plasmopara viticola): ≥ 60% | pest or weed control at 200 ppm (Phytophthora infestans): ≥ 60% | pest or weed control at 200 ppm [1]: ≥ 60% | pest or weed control at 200 ppm (Pyricularia oryzae): ≥ 60% | pest or weed control at 200 ppm (Septoria nodorum): ≥ 60% | inhibition of growth at 20 ppm (Pythium ultimum; 48 h): ≥ 60%

C#CC(C)(C)NC(=O)C(Oc1ccc2ncc(Cl)cc2c1)SC (centres unmarked) [Compound 1(23), reference compound]
Efficacy (%) (Septoria nodorum; [5]): 0% | Efficacy (%) (Septoria nodorum; [6]): 0% | Efficacy (%) (Septoria nodorum; [7]): 0%

C#CC(C)(C)NC(=O)C(Oc1cc(C)c2ncc(Cl)cc2c1)SC (centres unmarked) [Compound 17(4), 2-(3-Chloro-8-methyl-quinolin-6-yloxy)-N-(1,1-dimethyl-prop-2-ynyl)-2-methylsulfanyl-acetamide]
pest or weed control at 200 ppm (Plasmopara viticola; [2]): ≥ 60% | pest or weed control at 200 ppm (Phytophthora infestans): ≥ 60% | pest or weed control at 200 ppm [1, 3]: ≥ 60% | pest or weed control at 200 ppm (Pyricularia oryzae): ≥ 60% | Efficacy (%) (Septoria nodorum; [5]): 80% | Efficacy (%) (Septoria nodorum; [6]): 100% | Efficacy (%) (Septoria nodorum; [7]): 100% | pest or weed control at 200 ppm (Septoria nodorum; [3]): ≥ 60% | inhibition of growth at 20 ppm (Pythium ultimum; [4]): ≥ 60%
